Patent US20070208087A1, “Compounds, compositions and methods for the treatment of inflammatory diseases” (priority 2001, published 2007)
“And” between values parts separate entries of the source, which are not always exact repeats. Equal entries are not always repeated. Where two headings read alike, the source gives them in different places.

Tests used:
Assay type in all cases: cell-based
Microglial cells = assay: Dose response inhibition of NO release from microglia, 0.75-200 μM (Example 8)
Experimental: This experiment was designed to determine dose response inhibition of NO release from microglia by bis- and tris-dihydroxyaryl compounds when stimulated with LPS/IFNγ. […] This experiment is designed to determine a dose response for various bis- and tris-dihydroxyaryl compounds. Microglial cells were plated into 96 well plates at 1×10^5 cells/ml. […] The doses tested were: 0.75 μM, 1.56 μM, 3.125 μM, 6.25 μM, 12.5 μM, 25 μM, 50 μM, 100 μM and 200 μM. Nitric oxide release was measured after 48 hours using the Griess reaction.

[1] = test system: EOC 13.31 microglia cells; assay: NO release inhibition in LPS/IFNγ stimulated microglia, concurrent treatment, Griess reaction at 24 hours (Example 6); conditions: for NO release, Avg / inhibition at 50 µM: 24 hours; for inhibition at 50 µM: Microglia
Experimental: The purpose of this experiment was to screen compounds 3, 4, 21, 26, 51, 52, 66, and 78 for their ability to inhibit Nitric oxide release from microglia. […] EOC 13.31 microglia cells were plated into 96 well plates for 24 hours. Confluent cells were treated with 50 μM of the bis- and tris-dihydroxyaryl compounds either with or without stimulation at 1 pg/ml LPS, and 1 ng/ml IFNγ. NO release was measured at 24 hours using the Griess reaction which is a spectrophotometric measure of NO release (reagents from Promega).

microglia = assay: Ranking of NO release inhibition (Example 12); conditions: Microglia, ranking table
Text: The bis- and tris-dihydroxyaryl compounds were ranked in order of effectiveness for the inhibition of NO release as set out in Table 8.

[2] = test system: EOC 13.31 microglia cells; assay: Inhibition of NO release from microglia following 24 hours pretreatment (Example 10); conditions: for inhibition at 50 µM: Microglia
Outline: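 Confluent EOC 13.31 cells pretreated 24 hours with 50 μM compound (from 10 mM DMSO stock), then stimulated with 10 μg/ml LPS plus 10 ng/ml IFNγ without media change. After a further 48 hours, NO release was measured by Griess Reaction.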

[3] = dose 0.75 μM, 48 hours, single replicates
[4] = dose 1.56 μM, 48 hours, single replicates
[5] = dose 3.125 μM, 48 hours, single replicates
[6] = dose 6.25 μM, 48 hours, single replicates
[7] = dose 12.5 μM, 48 hours, single replicates
[8] = dose 25 μM, 48 hours, single replicates
[9] = dose 50 μM, 48 hours, single replicates
[10] = dose 100 μM, 48 hours, single replicates
[11] = dose 200 μM, 48 hours, single replicates

Oc1ccc(CCc2ccc(O)c(O)c2)cc1O [Compound 4, 1,2-bis(3,4-dihydroxyphenyl)ethane]
inhibition at 0.75 µM (Microglial cells; Microglia, 48 h, dose 0.75 μM): -11.1%
inhibition at 1.56 µM (Microglial cells; Microglia, 48 h, dose 1.56 μM): 2.52%
inhibition at 3.125 µM (Microglial cells; Microglia, 48 h, dose 3.125 μM): 6.14%
inhibition at 6.25 µM (Microglial cells; Microglia, 48 h, dose 6.25 μM, 48 hours, read-out: Avg % Inhibition): 36.2%
inhibition at 6.25 µM (Microglial cells; Microglia, 48 h, dose 6.25 μM, 48 hours, single replicates, read-out: % inhibition): 42.2%
inhibition at 12.5 µM (Microglial cells; Microglia, 48 h, dose 12.5 μM, 48 hours, read-out: Avg % Inhibition): 82.7%
inhibition at 12.5 µM (Microglial cells; Microglia, 48 h, dose 12.5 μM, 48 hours, single replicates, read-out: % inhibition): 85.1%
inhibition at 25 µM (Microglial cells; Microglia, 48 h, dose 25 μM, 48 hours, read-out: Avg % Inhibition): 86.2%
inhibition at 25 µM (Microglial cells; Microglia, 48 h, dose 25 μM, 48 hours, single replicates, read-out: % inhibition): 85.6%
inhibition at 50 µM (Microglial cells; Microglia, 48 h, dose 50 μM, 48 hours, read-out: Avg % Inhibition): 86.5%
inhibition at 50 µM (Microglial cells; Microglia, 48 h, dose 50 μM, 48 hours, single replicates, read-out: % inhibition): 87.2%
inhibition at 100 µM (Microglial cells; Microglia, 48 h, dose 100 μM, 48 hours, read-out: Avg % Inhibition): 82.2%
inhibition at 100 µM (Microglial cells; Microglia, 48 h, dose 100 μM, 48 hours, single replicates, read-out: % inhibition): 83%
inhibition at 200 µM (Microglial cells; Microglia, 48 h, dose 200 μM, 48 hours, read-out: Avg % Inhibition): 75%
inhibition at 200 µM (Microglial cells; Microglia, 48 h, dose 200 μM, 48 hours, single replicates, read-out: % inhibition): 77.4%
μM NO release Avg (Microglial cells; dose 0.75 μM, 48 hours): 27.011 µM
% inhibition (Microglial cells; [3]): −8.45% and −9.87% and −14.83%
OD values (printed under head μM NO release) (Microglial cells; [3]): 0.229 and 0.22 and 0.222
μM NO release (Microglial cells; [3]): 27.931 µM and 26.379 µM and 26.724 µM
μM NO release Avg (Microglial cells; dose 1.56 μM, 48 hours): 23.709 µM
% inhibition (Microglial cells; [4]): 6.85% and 4.93% and −4.20%
OD values (printed under head μM NO release) (Microglial cells; [4]): 0.214 and 0.197 and 0.2
μM NO release (Microglial cells; [4]): 25.345 µM and 22.656 µM and 23.125 µM
μM NO release Avg (Microglial cells; dose 3.125 μM, 48 hours): 22.829 µM
% inhibition (Microglial cells; [5]): 12.63% and 10.71% and −4.91%
OD values (printed under head μM NO release) (Microglial cells; [5]): 0.215 and 0.188 and 0.191
μM NO release (Microglial cells; [5]): 25.517 µM and 21.250 µM and 21.719 µM
μM NO release Avg (Microglial cells; dose 6.25 μM, 48 hours): 15.521 µM
% inhibition (Microglial cells; [6]): 40.26% and 26.12%
OD values (printed under head μM NO release) (Microglial cells; [6]): 0.167 and 0.142 and 0.145
μM NO release (Microglial cells; [6]): 17.969 µM and 14.063 µM and 14.531 µM
μM NO release Avg (Microglial cells; dose 12.5 μM, 48 hours): 4.21 µM
% inhibition (Microglial cells; [7]): 84.07% and 78.93%
OD values (printed under head μM NO release) (Microglial cells; [7]): 0.083 and 0.071 and 0.073
μM NO release (Microglial cells; [7]): 5.125 µM and 3.625 µM and 3.875 µM
μM NO release Avg (Microglial cells; dose 25 μM, 48 hours): 3.357 µM
% inhibition (Microglial cells; [8]): 87.89%
OD values (printed under head μM NO release) (Microglial cells; [8]): 0.071 and 0.07 and 0.064
μM NO release (Microglial cells; [8]): 3.625 µM and 3.500 µM and 2.947 µM
μM NO release Avg (Microglial cells; dose 50 μM, 48 hours): 3.292 µM
OD values (printed under head μM NO release) (Microglial cells; [9]): 0.071 and 0.067 (2×)
μM NO release (Microglial cells; [9]): 3.625 μM and 3.125 μM (2×)
μM NO release Avg (Microglial cells; dose 100 μM, 48 hours): 4.333 µM
% inhibition (Microglial cells; [10]): 82.01% and 81.50%
OD values (printed under head μM NO release) (Microglial cells; [10]): 0.078 and 0.075 and 0.077
μM NO release (Microglial cells; [10]): 4.500 µM and 4.125 µM and 4.375 µM
Avg % Inhibition (Microglial cells; dose 200 μM, 48 hours): 75.332%
μM NO release Avg (Microglial cells; dose 200 μM, 48 hours): 6.000 µM
% inhibition (Microglial cells; [11]): 74.30%
OD values (printed under head μM NO release) (Microglial cells; [11]): 0.092 (2×) and 0.086
μM NO release (Microglial cells; [11]): 6.250 μM (2×) and 5.500 μM
inhibition of NO release, in words (Microglial cells; dose response 0.75-200 μM): effective inhibitors of NO release
inhibition of NO release, in words ([1]; 50 μM, LPS/IFNγ stimulated microglial cells): very effective inhibitors of NO release
NO release, Avg ([1]; Compound + LPS/IFNγ, 50 μM): 1.0417 µM
NO release, Avg ([1]; Compound Only (without LPS/IFNγ), 50 μM): 0.8660 µM
inhibition at 50 µM ([1]; Compound + LPS/IFNγ, read-out: % inhibition of NO release): 94.4%
inhibition at 50 µM ([1]; Table 2 summary, LPS/IFNγ, read-out: % Inhibition (summary of inhibition of NO release)): 94.4%
inhibition at 50 µM (microglia): 94%
μM NO release ([2]; 50 uM pretreatment 24 hours, then LPS/IFNγ 48 hours, single replicates): 0.000 µM
inhibition at 50 µM ([2]; 50 uM pretreatment 24 hours, then LPS/IFNγ 48 hours, read-out: Avg % Inhibition): 100%
inhibition at 50 µM ([2]; 50 uM pretreatment 24 hours, then LPS/IFNγ 48 hours, single replicates, read-out: % inhibition): 100%
inhibition at 50 µM ([2]; 50 μM pretreatment, read-out: inhibition of NO release following pretreatment): > 75%
